Source: patent US20090030086A1, “ANTIMICROBIAL AGENTS” (priority 2005, published 2009)
Converted amounts (≈) assume the structure as drawn. Where two headings read alike, the source gives them in different places.

Tests used:
S. aureus ATCC 29213 [1] = assay: Disc diffusion assay (DDA); assay type: cell-based, Staphylococcus aureus; settings: S. aureus ATCC 29213, unsupplemented agar, 200 μg per disc (thymoquinone 50 μg, 2,6-dimethoxy-p-benzoquinone 100 μg); for zone of inhibition at 200 µg/disc: Staphylococcus aureus, ATCC29213, read-out: DDA (diameter of zone of inhibition)
Method: (§1) The staphylococci and enterococci were cultured and maintained on Mueller-Hinton Medium (agar and broth) at pH 7.2; they were incubated aerobically at 37° C. for 24 hours.
(§2) A sterile paper disc was impregnated with a sample of the test compound and a minimum of 30 minutes allowed for the solvents to evaporate as far as possible. The disc was then placed on an agar plate onto which the test micro-organism had been inoculated. The plate was then incubated under the conditions described above, following which it was examined visually for signs of bacterial growth. […] The diameter of this zone of “inhibition” was measured using a ProtoCOL™ automated zone sizer (Synbiosis, Cambridge, UK).
(§3) The area of the zone of inhibition was calculated from the measured zone diameter (D) using the formula π(D/2)^2.
(§4) For most DDA assays, 200 μg of each compound was loaded onto each disc.

S. aureus ATCC 29213 [2] = assay: Supplemented disc diffusion assay; assay type: cell-based, Staphylococcus aureus; settings: S. aureus ATCC 29213, 200 μg per disc (thymoquinone 50 μg, 2,6-dimethoxy-p-benzoquinone 100 μg); for zone of inhibition at 200 µg/disc: Staphylococcus aureus, ATCC29213, 24 h
Method: as §1, §2
(§5) Performance under these conditions can provide a more reliable indication of activity on topical application. For assays conducted using S. aureus strains, the supplements were defibrinated horse blood (5% v/v), lipid (Tween™ 80 at 1% v/v) and sodium chloride (100 mM). For those using Propionibacterium spp. strains, the supplements were lipid (Tween™ 80 at 1% v/v) and sodium chloride (100 mM).
(§6) The following experiments all used S. aureus ATCC 29213 as the test organism. MIC, MBC and DDA assays, as described above, were carried out using a range of different benzoquinones and hydroquinones. Supplemented DDA assays, in the presence of salt, lipid and blood, were also conducted.
as §4

S. aureus ATCC 29213 [3] = assay: MBC assay; assay type: cell-based, Staphylococcus aureus
Method: as §1
(§7) This assay, normally carried out after an MIC assay, determines the minimum concentration of a compound that is lethal to the micro-organism being tested.
(§8) These samples were then individually sub-cultured on non-selective agar medium, under the incubation conditions described above. Following incubation they were examined visually for bacterial growth.
as §6

S. aureus ATCC 29213 [4] = assay: MIC assay; assay type: cell-based, Staphylococcus aureus; settings: S. aureus ATCC 29213, Mueller-Hinton broth pH 7.2, aerobic, 37° C., 24 hours
Method: 1. Staphylococcus aureus—the principal staphylococcal test micro-organism used in these studies was Staphylococcus aureus ATCC 29213. This strain is the one recommended for QC/QA purposes in Minimum Inhibitory Concentration (MIC) assays by the US Clinical and Laboratory Standards Institute (formerly the NCCLS), an FDA-recognised body.
as §1
(§9) This is a standard international method for quantitatively assessing the antimicrobial activity of a compound in a liquid medium. The method used a 96-well microtitre plate, capable of holding about 200 μl of liquid per well. […] The culture media were as described above for the relevant test organisms.
(§10) The wells were inoculated with a liquid suspension of freshly grown micro-organism and incubated under the conditions described above. After incubation, the microtitre plate was examined visually (with the aid of a light box) for cloudiness in each well, which would indicate microbial growth. The MIC value was recorded as the lowest concentration of test compound required to inhibit microbial growth, i.e., the lowest concentration for which the liquid in the well remained clear.
(§11) The assays were conducted in duplicate and included both negative (culture medium only) and positive (culture medium, diluting solvent and inoculum) controls.
as §6

P. acnes NCTC 737 [5] = assay: MBC assay; assay type: cell-based, Propionibacterium acnes; settings: for MIC/MBC ratio: P. acnes NCTC 737
Method: (§12) The Propionibacterium spp organisms were cultured and maintained on Wilkins-Chalgren Anaerobe Medium (agar and broth) at pH 6.0; cultures were incubated anaerobically at 37° C. for 72 hours.
as §7, §8
(§13) MIC, MBC and DDA assays, as described above, were carried out using a range of different benzoquinones and hydroquinones. Supplemented DDA assays, in the presence of salt and lipid, were also conducted.

P. acnes NCTC 737 [6] = assay: Disc diffusion assay (DDA); assay type: cell-based, Propionibacterium acnes; settings: Cutibacterium acnes
Method: as §12, §2, §3, §4

P. acnes NCTC 737 [7] = assay: Supplemented disc diffusion assay; assay type: cell-based, Propionibacterium acnes; settings: for zone of inhibition at 200 µg/disc: Cutibacterium acnes, NCTC737, 72 h
Method: as §12, §2, §5, §13, §4

P. acnes NCTC 737 [8] = assay: MIC assay; assay type: cell-based, Propionibacterium acnes; settings: Cutibacterium acnes, NCTC737, 72 h, pH 6
Method: 2. Propionibacterium spp.—the principal propionibacterial strain used in these studies was Propionibacterium acnes NCTC 737.
as §12, §9, §10, §11, §13

[9] = defibrinated horse blood 5% v/v
[10] = Tween 80 at 1% v/v, read-out: DDA + lipid
[11] = defibrinated horse blood 5% v/v, read-out: DDA + blood
[12] = sodium chloride 100 mM, read-out: DDA + salt
[13] = Staphylococcus aureus, ATCC29213, read-out: MBC
[14] = Staphylococcus aureus, ATCC29213, read-out: MIC

SMILES | MIC/MBC ratio (S. aureus ATCC 29213 [3]) | MIC (S. aureus ATCC 29213 [4]; [14]) | DDA (diameter of zone of inhibition) (S. aureus ATCC 29213 [1]) | DDA + lipid (S. aureus ATCC 29213 [2]; Tween 80 at 1% v/v) | DDA + blood (S. aureus ATCC 29213 [2]; [9]) | DDA + salt (S. aureus ATCC 29213 [2]; sodium chloride 100 mM) | MBC (S. aureus ATCC 29213 [3]) | MIC (S. aureus ATCC 29213 [4]) | zone of inhibition at 200 µg/disc (S. aureus ATCC 29213 [1]) | zone of inhibition at 200 µg/disc (S. aureus ATCC 29213 [2]; [10]) | zone of inhibition at 200 µg/disc (S. aureus ATCC 29213 [2]; [11]) | zone of inhibition at 200 µg/disc (S. aureus ATCC 29213 [2]; [12]) | MBC (S. aureus ATCC 29213 [3]; [13]) | other results
Oc1cc(Cl)c(O)c(Cl)c1 [2,6-dichloro-p-hydroquinone] | 1 | – | 16.29 mm | 14.32 mm | 11.83 mm | 16.19 mm | 31.25 µg/mL (≈ 175 µM) | 31.25 µg/mL (≈ 175 µM) | – | – | – | – | – | –
Oc1ccc(O)c(Cl)c1 [2-chloro-p-hydroquinone] | 1 | – | 17.54 mm | 16.81 mm | 13.70 mm | 19.30 mm | 7.8 µg/mL (≈ 54 µM) | 7.8 µg/mL (≈ 54 µM) | – | – | – | – | – | –
O=C1C(Cl)=C(Cl)C(=O)C(Cl)=C1Cl [tetrachloro-p-benzoquinone] | – | – | – | – | – | – | – | – | – | – | – | – | – | MBC (P. acnes NCTC 737 [5]; Cutibacterium acnes, NCTC737): 62.5 µg/mL (≈ 254 µM); MIC/MBC ratio (P. acnes NCTC 737 [5]): 0.5; MIC (P. acnes NCTC 737 [8]): 31.2 µg/mL (≈ 127 µM); zone of inhibition at 200 µg/disc (P. acnes NCTC 737 [6]; NCTC737, read-out: DDA (diameter of zone of inhibition)): 11.6 mm; zone of inhibition at 200 µg/disc (P. acnes NCTC 737 [7]; read-out: DDA + lipid): 12.7 mm; zone of inhibition at 200 µg/disc (P. acnes NCTC 737 [7]; read-out: DDA + salt): 18.9 mm
Oc1ccc(O)c(Br)c1 [2-bromo-p-hydroquinone] | 1 | – | 20.75 mm | 17.43 mm | 14.94 mm | 18.99 mm | 31.25 µg/mL (≈ 165 µM) | 31.25 µg/mL (≈ 165 µM) | – | – | – | – | – | –

More lines, main results first:

MIC/MBC ratio (S. aureus ATCC 29213 [3]) | MIC (S. aureus ATCC 29213 [4]; [14]) | SMILES | DDA (diameter of zone of inhibition) (S. aureus ATCC 29213 [1]) | DDA + lipid (S. aureus ATCC 29213 [2]; Tween 80 at 1% v/v) | DDA + blood (S. aureus ATCC 29213 [2]; [9]) | DDA + salt (S. aureus ATCC 29213 [2]; sodium chloride 100 mM) | MBC (S. aureus ATCC 29213 [3]) | MIC (S. aureus ATCC 29213 [4]) | zone of inhibition at 200 µg/disc (S. aureus ATCC 29213 [1]) | zone of inhibition at 200 µg/disc (S. aureus ATCC 29213 [2]; [10]) | zone of inhibition at 200 µg/disc (S. aureus ATCC 29213 [2]; [11]) | zone of inhibition at 200 µg/disc (S. aureus ATCC 29213 [2]; [12]) | MBC (S. aureus ATCC 29213 [3]; [13]) | other results
0.5 | – | CC1=CC(=O)C(C(C)C)=CC1=O [thymoquinone] | – | – | – | – | – | – | 15.6 mm | – | – | – | – | MIC/MBC ratio (P. acnes NCTC 737 [5]): 0.5; zone of inhibition at 200 µg/disc (P. acnes NCTC 737 [6]; NCTC737, P. acnes NCTC 737, unsupplemented agar, 200 μg per disc (2,6-dimethoxy-p-benzoquinone 100 μg), read-out: DDA (diameter of zone of inhibition)): 27.5 mm; effect of lipid on antimicrobial activity (P. acnes NCTC 737 [7]; P. acnes NCTC 737, activity increases in the presence of lipid): potentiated
1 | 62.5 µg/mL (≈ 503 µM) | Cc1cccc(O)c1O [3-methylcatechol] | – | – | – | – | – | – | 19.8 mm | 18.7 mm | 0 mm | 20.2 mm | 62.5 µg/mL (≈ 503 µM) | –
1 | – | Oc1ccc(O)cc1 [p-hydroquinone] | 18.94 mm | – | – | – | – | – | – | – | – | – | – | –
0.25 | 62.5 µg/mL (≈ 284 µM) | CC(C)(C)C1=CC(=O)C=C(C(C)(C)C)C1=O [2,6-di-t-butyl-p-benzoquinone] | – | – | – | – | – | – | 0 mm | 9.37 mm | 0 mm | 0 mm | 250 µg/mL (≈ 1130 µM) | –
<0.5 | 125 µg/mL (≈ 806 µM) | O=[N+]([O-])c1ccc(O)c(O)c1 [4-nitrocatechol] | – | – | – | – | – | – | 18.9 mm | 16.5 mm | 11.8 mm | 19 mm | > 250 µg/mL | –
